Biological target: P. falciparum apicoplast DNA polymerase (Pf-apPOL) (Plasmodium falciparum, UniProt Q8ILY1)
Assay: Fluorescence-based high-throughput DNA polymerase assay (molecular beacon), primary screen and dose-response;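 as to % inhibition ApPOL 90': test concentration in µM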;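 as to % inhibition Apol 40': compound concentration given in µM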;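 as to % inhibition apPOL 180': test concentration in µM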
Type: biochemical
Conditions: for DNA Pol: 90 min, 10 µM
In short: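 Single-point screening used 10 µM compound with 20 nM polymerase, 20 nM hairpin substrate and 6 µM dNTPs for 90 min at 25 °C. Confirmatory titrations (2.5–80 µM) followed fluorescence at three times, and IC50 was derived from a fit including a cooperativity term n.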

[1] = 'DNA Pol' of the 186 hits list (primary screen value)

P. falciparum apicoplast DNA polymerase (Pf-apPOL), sequence (Q8ILY1 entry or part of it): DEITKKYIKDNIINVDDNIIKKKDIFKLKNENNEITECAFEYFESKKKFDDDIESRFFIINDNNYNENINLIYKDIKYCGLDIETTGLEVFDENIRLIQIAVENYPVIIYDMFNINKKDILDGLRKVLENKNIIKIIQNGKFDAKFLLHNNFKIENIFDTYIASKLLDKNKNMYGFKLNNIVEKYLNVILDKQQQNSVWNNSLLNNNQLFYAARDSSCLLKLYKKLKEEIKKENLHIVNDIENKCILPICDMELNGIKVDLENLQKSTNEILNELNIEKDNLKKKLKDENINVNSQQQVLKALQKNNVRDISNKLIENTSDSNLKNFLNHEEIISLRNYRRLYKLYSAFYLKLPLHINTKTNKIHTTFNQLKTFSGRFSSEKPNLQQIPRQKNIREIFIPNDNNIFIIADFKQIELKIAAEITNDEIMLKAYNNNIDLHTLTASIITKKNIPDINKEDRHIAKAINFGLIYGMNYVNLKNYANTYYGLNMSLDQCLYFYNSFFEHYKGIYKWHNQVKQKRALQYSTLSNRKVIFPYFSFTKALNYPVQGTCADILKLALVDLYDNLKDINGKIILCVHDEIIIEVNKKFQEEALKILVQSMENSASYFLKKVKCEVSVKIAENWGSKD

O=C(NC(C(Cl)Cl)S(=O)(=O)c1ccccc1)c1ccccc1 (stereo not drawn) [KU0045239]
DNA Pol [1]: 41
DNA Pol (DNA Pol (primary screen value)): 41
% inhibition Apo pol 10' (DRC-1, concentration 2.5): 21.4346%
% inhibition Apo pol 10' (DRC-1, concentration 5): 25.395%
% inhibition Apo pol 10' (DRC-1, concentration 10): 48.7805%
% inhibition Apo pol 10' (DRC-1, concentration 20): 67.0388%
% inhibition Apo pol 10' (DRC-1, concentration 40): 77.5747%
% inhibition Apo pol 10' (DRC-1, concentration 80): 80.3513%
% inhibition Apol 90' (DRC-1, concentration 2.5): 13.64%
% inhibition Apol 90' (DRC-1, concentration 5): 16.8163%
% inhibition Apol 90' (DRC-1, concentration 10): 39.9321%
% inhibition Apol 90' (DRC-1, concentration 20): 58.936%
% inhibition Apol 90' (DRC-1, concentration 40): 71.3995%
% inhibition Apol 90' (DRC-1, concentration 80): 76.3715%
% inhibition apPOL 180' (DRC-1, concentration 2.5): 5.305%
% inhibition apPOL 180' (DRC-1, concentration 5): 7.81%
% inhibition apPOL 180' (DRC-1, concentration 10): 29.3225%
% inhibition apPOL 180' (DRC-1, concentration 20): 48.9159%
% inhibition apPOL 180' (DRC-1, concentration 40): 64.7265%
% inhibition apPOL 180' (DRC-1, concentration 80): 71.27%
% inhibition Apo pol 5' (DRC-2, concentration 2.5): 4%
% inhibition Apo pol 5' (DRC-2, concentration 5): 18%
% inhibition Apo pol 5' (DRC-2, concentration 10): 26%
% inhibition Apo pol 5' (DRC-2, concentration 20): 59%
% inhibition Apo pol 5' (DRC-2, concentration 40): 65%
% inhibition Apo pol 5' (DRC-2, concentration 80): 46%
% inhibition Apol 40' (DRC-2, concentration 2.5): 11%
% inhibition Apol 40' (DRC-2, concentration 5): 25%
% inhibition Apol 40' (DRC-2, concentration 10): 36%
% inhibition Apol 40' (DRC-2, concentration 20): 69%
% inhibition Apol 40' (DRC-2, concentration 40): 76%
% inhibition Apol 40' (DRC-2, concentration 80): 62%
% inhibition ApPOL 90' (DRC-2, concentration 2.5): 11%
% inhibition ApPOL 90' (DRC-2, concentration 5): 24%
% inhibition ApPOL 90' (DRC-2, concentration 10): 35%
% inhibition ApPOL 90' (DRC-2, concentration 20): 68%
% inhibition ApPOL 90' (DRC-2, concentration 40): 76%
% inhibition ApPOL 90' (DRC-2, concentration 80): 64%
% inhibition apPOL 180' (DRC-2, concentration 2.5): 6.53%
% inhibition apPOL 180' (DRC-2, concentration 5): 11%
% inhibition apPOL 180' (DRC-2, concentration 10): 21%
% inhibition apPOL 180' (DRC-2, concentration 20): 58%
% inhibition apPOL 180' (DRC-2, concentration 40): 69%
% inhibition apPOL 180' (DRC-2, concentration 80): 58%

CC(NC(=O)Cc1cc(=O)[nH]c(SCc2cccc(Cl)c2)n1)c1ccccc1 (stereo not drawn) [Molecule 67, O=C(NC(c1ccccc1)C)Cc1nc(SCc2cccc(c2)Cl)[nH]c(=O)c1]
DNA Pol [1]: 46
DNA Pol (DNA Pol (primary screen value)): 46
% inhibition Apo pol 10' (DRC-1, concentration 2.5): -1.6671%
% inhibition Apo pol 10' (DRC-1, concentration 5): 0%
% inhibition Apo pol 10' (DRC-1, concentration 10): 11.4347%
% inhibition Apo pol 10' (DRC-1, concentration 20): 48.0532%
% inhibition Apo pol 10' (DRC-1, concentration 40): 64.8608%
% inhibition Apo pol 10' (DRC-1, concentration 80): 85.5547%
% inhibition Apol 90' (DRC-1, concentration 2.5): -5.257%
% inhibition Apol 90' (DRC-1, concentration 5): -6.461%
% inhibition Apol 90' (DRC-1, concentration 10): 1.923%
% inhibition Apol 90' (DRC-1, concentration 20): 26.5805%
% inhibition Apol 90' (DRC-1, concentration 40): 38.5858%
% inhibition Apol 90' (DRC-1, concentration 80): 80.0323%
% inhibition apPOL 180' (DRC-1, concentration 2.5): -10.8024%
% inhibition apPOL 180' (DRC-1, concentration 5): -10.8936%
% inhibition apPOL 180' (DRC-1, concentration 10): -3.791%
% inhibition apPOL 180' (DRC-1, concentration 20): 10.3203%
% inhibition apPOL 180' (DRC-1, concentration 40): 18.891%
% inhibition apPOL 180' (DRC-1, concentration 80): 71.4283%
% inhibition Apo pol 5' (DRC-2, concentration 2.5): 0.743%
% inhibition Apo pol 5' (DRC-2, concentration 5): -0.394%
% inhibition Apo pol 5' (DRC-2, concentration 10): 30%
% inhibition Apo pol 5' (DRC-2, concentration 20): 33%
% inhibition Apo pol 5' (DRC-2, concentration 40): 27%
% inhibition Apo pol 5' (DRC-2, concentration 80): 20%
% inhibition Apol 40' (DRC-2, concentration 2.5): 0.551%
% inhibition Apol 40' (DRC-2, concentration 5): 0.92%
% inhibition Apol 40' (DRC-2, concentration 10): 36%
% inhibition Apol 40' (DRC-2, concentration 20): 49%
% inhibition Apol 40' (DRC-2, concentration 40): 52%
% inhibition Apol 40' (DRC-2, concentration 80): 55%
% inhibition ApPOL 90' (DRC-2, concentration 2.5): 0.178%
% inhibition ApPOL 90' (DRC-2, concentration 5): -1%
% inhibition ApPOL 90' (DRC-2, concentration 10): 32%
% inhibition ApPOL 90' (DRC-2, concentration 20): 48%
% inhibition ApPOL 90' (DRC-2, concentration 40): 54%
% inhibition ApPOL 90' (DRC-2, concentration 80): 64%
% inhibition apPOL 180' (DRC-2, concentration 2.5): -3%
% inhibition apPOL 180' (DRC-2, concentration 5): -6%
% inhibition apPOL 180' (DRC-2, concentration 10): 20%
% inhibition apPOL 180' (DRC-2, concentration 20): 37%
% inhibition apPOL 180' (DRC-2, concentration 40): 49%
% inhibition apPOL 180' (DRC-2, concentration 80): 70%

CN(C)S(=O)(=O)Oc1ccc(-c2noc(-c3ccc(Oc4cc(Cl)cc(Cl)c4)o3)n2)cc1 [KU0263859]
DNA Pol ("DNA Pol" of the 186 hits list (screen value)): 81
% inhibition Apo pol 10' (DRC-1, concentration 2.5): 3.819%
% inhibition Apo pol 10' (DRC-1, concentration 5): 17.153%
% inhibition Apo pol 10' (DRC-1, concentration 10): 39.7031%
% inhibition Apo pol 10' (DRC-1, concentration 20): 66.3992%
% inhibition Apo pol 10' (DRC-1, concentration 40): 79.6706%
% inhibition Apo pol 10' (DRC-1, concentration 80): 81.4369%
% inhibition Apol 90' (DRC-1, concentration 2.5): 1.99%
% inhibition Apol 90' (DRC-1, concentration 5): 7.942%
% inhibition Apol 90' (DRC-1, concentration 10): 26.2984%
% inhibition Apol 90' (DRC-1, concentration 20): 55.9318%
% inhibition Apol 90' (DRC-1, concentration 40): 71.2326%
% inhibition Apol 90' (DRC-1, concentration 80): 82.3525%
% inhibition apPOL 180' (DRC-1, concentration 2.5): 0.6453%
% inhibition apPOL 180' (DRC-1, concentration 5): 1.378%
% inhibition apPOL 180' (DRC-1, concentration 10): 13.3092%
% inhibition apPOL 180' (DRC-1, concentration 20): 44.3234%
% inhibition apPOL 180' (DRC-1, concentration 40): 58.5688%
% inhibition apPOL 180' (DRC-1, concentration 80): 76.7438%
% inhibition Apo pol 5' (DRC-2, concentration 2.5): 2.6%
% inhibition Apo pol 5' (DRC-2, concentration 5): 18%
% inhibition Apo pol 5' (DRC-2, concentration 10): 34%
% inhibition Apo pol 5' (DRC-2, concentration 20): 47%
% inhibition Apo pol 5' (DRC-2, concentration 40): 47%
% inhibition Apo pol 5' (DRC-2, concentration 80): 46%
% inhibition Apol 40' (DRC-2, concentration 2.5): 3%
% inhibition Apol 40' (DRC-2, concentration 5): 16%
% inhibition Apol 40' (DRC-2, concentration 10): 36%
% inhibition Apol 40' (DRC-2, concentration 20): 57%
% inhibition Apol 40' (DRC-2, concentration 40): 65%
% inhibition Apol 40' (DRC-2, concentration 80): 68%
% inhibition ApPOL 90' (DRC-2, concentration 2.5): 0.164%
% inhibition ApPOL 90' (DRC-2, concentration 5): 12%
% inhibition ApPOL 90' (DRC-2, concentration 10): 32%
% inhibition ApPOL 90' (DRC-2, concentration 20): 56%
% inhibition ApPOL 90' (DRC-2, concentration 40): 67%
% inhibition ApPOL 90' (DRC-2, concentration 80): 73%
% inhibition apPOL 180' (DRC-2, concentration 2.5): -5.61%
% inhibition apPOL 180' (DRC-2, concentration 5): 5.64%
% inhibition apPOL 180' (DRC-2, concentration 10): 20%
% inhibition apPOL 180' (DRC-2, concentration 20): 47%
% inhibition apPOL 180' (DRC-2, concentration 40): 65%
% inhibition apPOL 180' (DRC-2, concentration 80): 76%
DNA Pol (primary screen value, DNA Pol): 81

Source: article PMC9090415, “Discovery of small molecule inhibitors of Plasmodium falciparum apicoplast DNA polymerase” (Journal of Enzyme Inhibition and Medicinal Chemistry, 2022)
